Measured values as given in paper PMC6222425, “Novel 5′-Norcarbocyclic Derivatives of Bicyclic Pyrrolo- and Furano[2,3-d]Pyrimidine Nucleosides” (Molecules : A Journal of Synthetic Chemistry and Natural …, 2018).
Where two headings read alike, the source gives them in different places.

Legend:
[1] = test system: HuTu-80 (human duodenal cancer) cells; test: Cell viability analysis by MTT assay, HuTu-80; format: cell-based; conditions: for IC50: Homo sapiens, HuTu80, MTT, 48 h incubation, read-out: Antiproliferative activity, IC50, HuTu80; for Selectivity index, HuTu80: ratio of IC50 on normal hFF3 cells to IC50 of HuTu80
Experimental: (§1) The target compounds were tested on different lines of tumor cells, HuTu-80 (human duodenal cancer), B16 (mouse melanoma), A549 (human lung adenocarcinoma), KB-3-1 (human squamous cell carcinoma), HeLa (human squamous cell carcinoma of the cervix), as well as on human noncancer cells hFF3.
(§2) Human KB-3-1 epidermoid carcinoma cell line, human HeLa cervical epithelioid carcinoma cell line, human HuTu-80 duodenal cancer cells, human A549 lung carcinoma epithelial cells, mouse B16 melanoma cell line and human hFF3 fibroblast cells were obtained from the Russian Cell Culture Collection (St. Petersburg, Russia) and were cultured in DMEM (hFF3 cells in IMDM) supplemented with 10% (v/v) heat-inactivated fetal bovine serum, penicillin (100 U mL^−1), streptomycin (100 µg mL^−1) and amphotericin ([…]). Cells were maintained in a humidified atmosphere of 5% CO2 at 37 °C.
(§3) All compounds were dissolved in dimethylsulfoxide (DMSO) and stock solutions (10 mmol L^−1) were stored at −20 °C.
(§4) Cells growing in the logarithmic phase were seeded in triplicate in 96-well plates at a density of 5 × 10^3 cells per well for HeLa and HuTu-80 cells, 7 × 10^3 cells per well for KB-3-1 and hFF3, 10 × 10^3 for A549 and 20 × 10^3 for B16. The plates were incubated at 37 °C in a humidified 5% CO2 atmosphere. Cells were allowed to adhere to the surface for 24 h and then tested compounds were added at different concentrations and incubation was continued for 48 h. Then [3-(4,5-dimethylthiazol-2-yl)-2,5-diphenyltetrazolium bromide] (MTT) solution (10 µL, 5 mg mL^−1) was added to each well and the incubation was continued for an additional 3 h. The dark blue formazan crystals formed within the healthy cells were solubilized with DMSO and the absorbance was measured using a Multiscan RC plate reader at 570 nm. The IC50 was determined as the compound concentration required to decrease the A570 to 50% compared to the control (no tested compounds, DMSO) and was determined by interpolation from dose-response curves.

[2] = test system: B16 (mouse melanoma) cells; test: Cell viability analysis by MTT assay, B16; format: cell-based; conditions: for IC50: MTT, 48 h incubation, read-out: Antiproliferative activity, IC50, B16; for Selectivity index, B16: ratio of IC50 on normal hFF3 cells to IC50 of B16
Experimental: as §1, §2, §3, §4

[3] = test system: A549 (human lung adenocarcinoma) cells; test: Cell viability analysis by MTT assay, A549; format: cell-based; conditions: for IC50: Homo sapiens, A549, MTT, 48 h incubation, read-out: Antiproliferative activity, IC50, A549; for Selectivity index, A549: ratio of IC50 on normal hFF3 cells to IC50 of A549
Experimental: as §1, §2, §3, §4

[4] = test system: KB-3-1 (human epidermoid carcinoma) cells; test: Cell viability analysis by MTT assay, KB-3-1; format: cell-based; conditions: for IC50: MTT, 48 h incubation, read-out: Antiproliferative activity, IC50, KB-3-1; for Selectivity index, KB-3-1: ratio of IC50 on normal hFF3 cells to IC50 of KB-3-1
Experimental: as §1, §2, §3, §4

[5] = test system: HeLa (human cervical epithelioid carcinoma) cells; test: Cell viability analysis by MTT assay, HeLa; format: cell-based; conditions: for IC50: Homo sapiens, HeLa, MTT, 48 h incubation, read-out: Antiproliferative activity, IC50, HeLa; for Selectivity index, HeLa: ratio of IC50 on normal hFF3 cells to IC50 of HeLa
Experimental: as §1, §2, §3, §4

[6] = test system: human noncancer cells hFF3 (fibroblasts); test: Cell viability analysis by MTT assay, normal hFF3 cells; format: cell-based; conditions: for IC50: normal cells, MTT, 48 h incubation, read-out: Antiproliferative activity, IC50, hHFF3; for Toxic effect on normal hFF3 cells: concentrations up to 100 μM
Experimental: as §1, §2, §3, §4

tumor cells = test: Cell viability MTT assay, statements on the tumor cell panel as a whole; format: cell-based; conditions: for Toxic effect on tumor cells: concentrations up to 100 μM
Experimental: as §1, §2, §4

KB-3-1 cells [7] = test: Apoptosis detection by Annexin V/PI staining, flow cytometry; format: cell-based, human; conditions: 48 h
Experimental: To examine whether the tested 5′-norcarbocyclic derivatives induce cell death via apoptosis Annexin V and propidium iodide analysis were used (Figure 1). […] Annexin V binds phosphatidylserine residues, which are asymmetrically distributed toward the inner plasma membrane, and migrate to the outer plasma membrane during apoptosis.
Exponentially growing KB-3-1 cells in 6–well plates (5 × 10^5 cells per well) were treated with 3i (5, 10 and 20 µM) or with 0.1% (v/v) DMSO as a control for 48 h. The cells were stained with Annexin V-FITC and propidium iodide by the Annexin-FITC apoptosis staining/detection kit (Abcam) according to the instruction of the manufacturer. Briefly, cells were collected by scrapping, washed twice with cold PBS, and centrifuged (400 g, 5 min). Cells were resuspended in binding buffer (500 µL) and Annexin V–FITC (5 µL) and PI (5 µL) were added. Cells were incubated for 5 min at 20 °C in the dark. Finally, binding buffer (300 µL) was added to each tube, and the amount of apoptotic cells in samples were analyzed by flow cytometry. For each sample, 10,000 ungated events were acquired. Annexin V + PI − cells represent the early apoptotic populations. Annexin V + PI + cells represent either late apoptotic or secondary necrotic populations.

KB-3-1 cells [8] = test: Mitochondria depolarization analysis, JC-1 staining, flow cytometry; format: cell-based, human; conditions: 20 µM, KB-3-1, control 0.1% DMSO
Text: We next investigated whether 3i utilizes the mitochondrial ‘intrinsic’ pathway in the apoptotic death of KB-3-1 cells, since the pivotal role of mitochondria in triggering apoptosis is well established. We evaluated the mitochondrial transmembrane potential (∆Ψm) in KB-3-1 cells exposed to 3i using cytofluorometric analysis. Cells were stained with the specific mitochondrial cationic dye JC-1 (5,5′,6,6′-tetrachloro-1,1′,3,3′-tetraethyl benzimidazole carbocyanine iodide) that accumulates in the transmembrane space of polarized mitochondria and forms the so–called «J–aggregates», emitting red fluorescence. A decrease in ∆Ψm results in disappearance of J–aggregates and formation of JC-1 monomers, which emit in a green fluorescence.
Mitochondria involvement in apoptosis was measured by mitochondrial depolarization occurring early during onset of apoptosis. KB-3-1 cells were incubated with 3i (5, 10 and 20 µM) or 0.1% (v/v) DMSO as a control for 48 h. Then, cells were collected and incubated in complete media in the dark with mitochondrial potential sensor JC-1 (5 µg mL^−1) at 37 °C for 30 min, washed with cold PBS and resuspended in PBS (400 µL). Fluorescences of J–aggregate and J–monomer were recorded in the fluorescence channels 2 (FL2) and 1 (FL1), respectively, with flow cytometer «FC500». […]

## CCCCCc1cc2cn(C3C=CC(O)C3)c(=O)nc2o1 (centres unmarked) [Compound 3b, 1-(4′-Hydroxy-2′-cyclopenten-1′-yl)-6-pentyl-3H-furano[2,3-d]-pyrimidine-2-one]
[1]
  IC50: > 100 µM
[2]; Mus musculus, 48 h
  IC50: > 100 µM
[3]
  IC50: > 100 µM
[4]; Homo sapiens, KB 3-1, 48 h
  IC50: > 100 µM
[5]
  IC50: > 100 µM
[6]; Homo sapiens, HFF-3, 48 h
  IC50: > 100 µM
[6]
  Toxic effect on normal hFF3 cells: no toxic effect
Tumor cells
  Toxic effect on tumor cells: no toxic effect

## CCCCCc1ccc(-c2cc3cn(C4C=CC(O)C4)c(=O)nc3o2)cc1 (centres unmarked) [Compound 3i, 1-(4′-Hydroxy-2′-cyclopenten-1′-yl)-6-(4-pentylphenyl)-3H-furano[2,3-d]-pyrimidine-2-one]
[1]
  IC50: 5.1 ± 0.6 µM
  Selectivity index, HuTu80: >19.6
[2]
  IC50: 21.3 ± 2.9 µM
  Selectivity index, B16: >4.7
[2]; Mus musculus, 48 h
  IC50: 21 µM
[3]
  IC50: 47.5 ± 5.8 µM
  Selectivity index, A549: >2.1
[4]; Homo sapiens, KB 3-1, 48 h
  IC50: 8.2 ± 1.3 µM
[4]
  Selectivity index, KB-3-1: >12.2
[5]
  IC50: 6.5 ± 0.9 µM
  Selectivity index, HeLa: >15.3
[6]; Homo sapiens, HFF-3, 48 h
  IC50: > 100 µM
[6]
  Toxic effect on normal hFF3 cells: not toxic
KB-3-1 cells [7]; 5 µM
  Apoptotic cells: 26%
KB-3-1 cells [7]; 20 µM
  Apoptotic cells: 55.3%
KB-3-1 cells [8]
  Red fluorescence value (JC-1 J-aggregates) as compared to the control: decrease
Tumor cells; depending on the nature and origin of tumor cells
  Selectivity index value: 15–20

## CCCc1cc2cn(C3C=CC(O)C3)c(=O)nc2[nH]1 (centres unmarked) [Compound 4a, 1-(4′-Hydroxy-2′-cyclopenten-1′-yl)-6-propyl-3H-pyrrolo[2,3-d]-pyrimidine-2-one]
[1]
  IC50: > 100 µM
[2]; Mus musculus, 48 h
  IC50: > 100 µM
[3]
  IC50: > 100 µM
[4]; Homo sapiens, KB 3-1, 48 h
  IC50: > 100 µM
[5]
  IC50: > 100 µM
[6]; Homo sapiens, HFF-3, 48 h
  IC50: > 100 µM
[6]
  Toxic effect on normal hFF3 cells: no toxic effect
Tumor cells
  Toxic effect on tumor cells: no toxic effect

## O=c1nc2[nH]c(-c3ccccc3)cc2cn1C1C=CC(O)C1 (centres unmarked) [Compound 4g, 1-(4′-Hydroxy-2′-cyclopenten-1′-yl)-6-phenyl-3H-pyrrolo[2,3-d]-pyrimidine-2-one]
[1]
  IC50: > 100 µM
[2]; Mus musculus, 48 h
  IC50: > 100 µM
[3]
  IC50: 50.2 ± 6.7 µM
  Selectivity index, A549: >2
[4]; Homo sapiens, KB 3-1, 48 h
  IC50: 45.4 ± 5.3 µM
[4]
  Selectivity index, KB-3-1: >2.2
[5]
  IC50: 90.2 ± 9.6 µM
  Selectivity index, HeLa: >1.1
[6]; Homo sapiens, HFF-3, 48 h
  IC50: > 100 µM
[6]
  Toxic effect on normal hFF3 cells: not toxic

## CC(C)(C)c1ccc(-c2cc3cn(C4C=CC(O)C4)c(=O)nc3[nH]2)cc1 (centres unmarked) [Compound 4h, 1-(4′-Hydroxy-2′-cyclopenten-1′-yl)-6-(4-tertbutylphenyl)-3H-pyrrolo[2,3-d]-pyrimidine-2-one]
[1]
  IC50: 25.4 ± 3.1 µM
  Selectivity index, HuTu80: 2.8
[2]
  IC50: 35.6 ± 4.2 µM
  Selectivity index, B16: 1.9
[2]; Mus musculus, 48 h
  IC50: 35 µM
[3]
  IC50: 25.3 ± 2.9 µM
  Selectivity index, A549: 2.8
[4]; Homo sapiens, KB 3-1, 48 h
  IC50: 15 µM
[4]
  IC50: 15.3 ± 1.1 µM
  Selectivity index, KB-3-1: 4.6
[5]
  IC50: 25.8 ± 4.6 µM
  Selectivity index, HeLa: 2.7
[6]; Homo sapiens, HFF-3, 48 h
  IC50: 70 µM
[6]
  IC50: 70.9 ± 9.1 µM

## CCCCCc1ccc(-c2cc3cn(C4C=CC(O)C4)c(=O)nc3[nH]2)cc1 (centres unmarked) [Compound 4i, 1-(4′-Hydroxy-2′-cyclopenten-1′-yl)-6-(4-pentylphenyl)-3H-pyrrolo[2,3-d]-pyrimidine-2-one]
[1]
  IC50: 8.5 ± 1.1 µM
  Selectivity index, HuTu80: 2.6
[2]; Mus musculus, 48 h
  IC50: 13.4 ± 3.2 µM
[2]
  Selectivity index, B16: 1.6
[3]
  IC50: 15.6 ± 4.1 µM
  Selectivity index, A549: 1.4
[4]; Homo sapiens, KB 3-1, 48 h
  IC50: 9.8 ± 0.7 µM
[4]
  Selectivity index, KB-3-1: 2.2
[5]
  IC50: 11.1 ± 0.9 µM
  Selectivity index, HeLa: 1.9
[6]; Homo sapiens, HFF-3, 48 h
  IC50: 21.9 ± 4.8 µM

## CCCCCCCCCCc1cc2cn(C3CC(O)C(O)C3O)c(=O)nc2o1 (centres unmarked) [Compound 5, 1-(2′,3′,4′-Trihydroxycyclopent-1′-yl)-6-decyl-3H-furano[2,3-d]-pyrimidine-2-one]
[1]
  IC50: > 100 µM
[2]; Mus musculus, 48 h
  IC50: > 100 µM
[3]
  IC50: > 100 µM
[4]; Homo sapiens, KB 3-1, 48 h
  IC50: 50.3 ± 9.8 µM
[4]
  Selectivity index, KB-3-1: >2
[5]
  IC50: 70.2 ± 8.9 µM
  Selectivity index, HeLa: >1.4
[6]; Homo sapiens, HFF-3, 48 h
  IC50: > 100 µM
[6]
  Toxic effect on normal hFF3 cells: not toxic
